{"source": "patent US8575342B2", "about": "“HIV inhibiting 5-heterocyclyl pyrimidines” (Tibotech Pharmaceuticals Ltd., priority 2004, dated 2013)", "key": {"[1]": {"system": "wild type HIV-LAI strain (IIIB)", "test": "cellular antiviral assay, strain IIIB", "assay_type": "cell-based", "conditions": "for EC50: read-out: pEC50 IIIB (converted)", "text": "Strain IIIB is wild type HIV-LAI strain"}, "[2]": {"system": "HIV strain B, mutation K103N in HIV reverse transcriptase", "test": "cellular antiviral assay, strain B", "assay_type": "cell-based", "conditions": "for EC50: Human immunodeficiency virus 1, read-out: pEC50 B (converted)", "text": "Strain B contains mutation K103N in HIV reverse transcriptase, […]"}, "[3]": {"system": "HIV strain C, mutation L100I in HIV reverse transcriptase", "test": "cellular antiviral assay, strain C", "assay_type": "cell-based", "conditions": "for EC50: Human immunodeficiency virus 1, read-out: pEC50 C (converted); for pEC50 C: strain C, L100I", "text": "Strain C contains mutation L100I in HIV reverse transcriptase, […]"}, "[4]": {"system": "HIV strain D, mutation Y188L in HIV reverse transcriptase", "test": "cellular antiviral assay, strain D", "assay_type": "cell-based", "conditions": "for EC50: Human immunodeficiency virus 1, read-out: pEC50 D (converted); for pEC50 D: strain D, Y188L", "text": "Strain D contains mutation Y188L in HIV reverse transcriptase, […]"}, "[5]": {"system": "HIV strain E, mutations L100I and K103N in HIV reverse transcriptase", "test": "cellular antiviral assay, strain E", "assay_type": "cell-based", "conditions": "for EC50: Human immunodeficiency virus 1, read-out: pEC50 E (converted); for pEC50 E: strain E, L100I and K103N", "text": "Strain E contains mutations L100I and K103N in HIV reverse transcriptase, […]"}, "[6]": {"test": "cellular antiviral assay, strain G", "assay_type": "cell-based, HIV", "conditions": "Human immunodeficiency virus 1, read-out: pEC50 G (converted)"}, "[7]": {"conditions": "Human immunodeficiency virus 1, IIIB"}}, "note": "Where two headings read alike, the source gives them in different places."}
{"smiles": "Cc1cc(/C=C/C#N)cc(C)c1Nc1nc(Nc2ccc(C#N)cc2)ncc1-c1cccnc1", "note": "[Compound 2]", "values": [{"measurement": "EC50", "setting": "[1]; [7]", "value": 0.631, "unit": "nM"}, {"measurement": "EC50", "setting": "[2]", "value": 0.631, "unit": "nM"}, {"measurement": "EC50", "setting": "[3]", "value": 2, "unit": "nM"}, {"measurement": "EC50", "setting": "[4]", "value": 3.98, "unit": "nM"}, {"measurement": "EC50", "setting": "[5]", "value": 12.6, "unit": "nM"}, {"measurement": "EC50", "setting": "[6]", "value": 7940, "unit": "nM"}]}
{"smiles": "N#C/C=C/c1cc(F)c(Nc2nc(Nc3ccc(C#N)cc3)ncc2-n2cccc2)c(Cl)c1", "note": "[Compound 4]", "values": [{"measurement": "EC50", "setting": "[1]; [7]", "value": 1, "unit": "nM"}, {"measurement": "EC50", "setting": "[2]", "value": 1, "unit": "nM"}, {"measurement": "EC50", "setting": "[3]", "value": 0.794, "unit": "nM"}, {"measurement": "EC50", "setting": "[4]", "value": 12.6, "unit": "nM"}, {"measurement": "EC50", "setting": "[5]", "value": 3.16, "unit": "nM"}, {"measurement": "EC50", "setting": "[6]", "value": 2510, "unit": "nM"}]}
{"smiles": "Cc1cc(C=CC#N)cc(C)c1Nc1nc(Nc2ccc(C#N)cc2)ncc1-c1nc(-c2ccccc2)no1", "note": "(mixture of isomers) [Compound 13]", "values": [{"measurement": "pEC50 IIIB", "setting": "[1]; strain IIIB, wild type HIV-LAI", "value": 7.8}, {"measurement": "pEC50 B", "setting": "[2]; strain B, K103N", "value": 7.7}, {"measurement": "pEC50 C", "setting": "[3]", "value": 7.8}, {"measurement": "pEC50 D", "setting": "[4]", "value": 7}, {"measurement": "pEC50 E", "setting": "[5]", "value": 7}]}
{"smiles": "Cc1noc(-c2cnc(Nc3ccc(C#N)cc3)nc2Nc2c(C)cc(/C=C/C#N)cc2C)n1", "note": "[Compound 16]", "values": [{"measurement": "pEC50 IIIB", "setting": "[1]; strain IIIB, wild type HIV-LAI", "value": 8.3}, {"measurement": "pEC50 C", "setting": "[3]", "value": 8.4}, {"measurement": "pEC50 D", "setting": "[4]", "value": 7.8}, {"measurement": "pEC50 E", "setting": "[5]", "value": 7.7}]}
{"smiles": "Cc1cc(/C=C/C#N)cc(C)c1Nc1nc(Nc2ccc(C#N)cc2)ncc1-n1cccc1", "note": "[Compound 1]", "values": [{"measurement": "EC50", "setting": "[1]; [7]", "value": 1, "unit": "nM"}, {"measurement": "EC50", "setting": "[2]", "value": 0.794, "unit": "nM"}, {"measurement": "EC50", "setting": "[3]", "value": 1, "unit": "nM"}, {"measurement": "EC50", "setting": "[4]", "value": 6.31, "unit": "nM"}, {"measurement": "EC50", "setting": "[5]", "value": 3.98, "unit": "nM"}, {"measurement": "EC50", "setting": "[6]", "value": 1580, "unit": "nM"}]}
{"smiles": "Cc1cc(/C=C/C#N)cc(C)c1Nc1nc(Nc2ccc(C#N)cc2)ncc1-c1ccco1", "note": "[Compound 3]", "values": [{"measurement": "EC50", "setting": "[1]; Human immunodeficiency virus 1, strain IIIB, wild type HIV-LAI", "value": 0.631, "unit": "nM"}, {"measurement": "EC50", "setting": "[2]", "value": 0.794, "unit": "nM"}, {"measurement": "EC50", "setting": "[3]", "value": 0.631, "unit": "nM"}, {"measurement": "EC50", "setting": "[4]", "value": 2.51, "unit": "nM"}, {"measurement": "EC50", "setting": "[5]", "value": 3.16, "unit": "nM"}, {"measurement": "EC50", "setting": "[6]", "value": 631, "unit": "nM"}]}
{"smiles": "Cc1cc(/C=C/C#N)cc(C)c1Nc1nc(Nc2ccc(C#N)cc2)ncc1-c1ncccc1N", "note": "[Compound 20]", "values": [{"measurement": "pEC50 IIIB", "setting": "[1]; strain IIIB, wild type HIV-LAI", "value": 8.7}, {"measurement": "pEC50 E", "setting": "[5]", "value": 7.1}]}
{"smiles": "Cc1cc(/C=C/C#N)cc(C)c1Nc1nc(Nc2ccc(C#N)cc2)ncc1-c1nc(-c2ccco2)no1", "note": "[Compound 15]", "values": [{"measurement": "pEC50 IIIB", "setting": "[1]; strain IIIB, wild type HIV-LAI", "value": 7.6}, {"measurement": "pEC50 C", "setting": "[3]", "value": 6.7}, {"measurement": "pEC50 D", "setting": "[4]", "value": 6.2}, {"measurement": "pEC50 E", "setting": "[5]", "value": 4.6}]}
{"smiles": "Cc1cc(/C=C/C#N)cc(C)c1Nc1nc(Nc2ccc(C#N)cc2)ncc1-c1nc(-c2cccs2)no1", "note": "[Compound 17]", "values": [{"measurement": "pEC50 IIIB", "setting": "[1]; strain IIIB, wild type HIV-LAI", "value": 7.0}, {"measurement": "pEC50 C", "setting": "[3]", "value": 6.0}, {"measurement": "pEC50 D", "setting": "[4]", "value": 5.7}, {"measurement": "pEC50 E", "setting": "[5]", "value": 5.0}]}
